Test results: patent publication US20200361895A1, “NOVEL SULFONAMIDE CARBOXAMIDE COMPOUNDS” (Inflazome Limited, priority 2017, published 2020)
Structures can show the parent of a compound that is named as a salt. Where two headings read alike, the source gives them in different places.

Tests used:
[1] = PK protocol, intravenous administration; type: in vivo, male Sprague Dawley rats; conditions: male, Sprague Dawley, plasma, rat; for Vd: read-out: Vdss
Protocol: Pharmacokinetic parameters were determined in male Sprague Dawley rats (Charles River, UK, 250-350 g; or Vital River Laboratory Animal Technology Co Ltd, Beijing, China, 7-9 weeks old). Animals were individually housed during the study and maintained under a 12 h light/dark cycle. Animals had free access to food and water.
For intravenous administration, compounds were formulated as a solution in water or DMSO:PBS [10:90] in 2 mL/kg dosing volume and administered via tail vein. For oral administration, compounds were formulated as a solution in DMSO:water [10:90] in 5 mL/kg dosing volume and administered orally.
Serial blood samples (about 120-300 μL) were taken from each animal at each of 8 time-points post dose (0.083, 0.25, 0.5, 1, 2, 4, 8 and 24 h) or at each of 12 time-points post dose (0.03, 0.1, 0.17, 0.25, 0.5, 1, 2, 4, 6, 8, 12 and 24 h) or pre-dose and at each of 9 time-points post dose (0.25, 0.5, 1, 2, 4, 6, 8, 12 and 24 h). Samples were held on ice for no longer than 30 minutes before centrifugation (10,000 rpm (8,385 g) for 3 minutes; or 5,696 rpm (3,000 g) for 15 minutes) for plasma generation. Plasma was frozen on dry ice prior to bioanalysis. PK parameters were generated from LC-MS/MS data using Dotmatics or Phoenix WinNonlin 6.3 software.

NLRP3 [2] = target: T1, NLRP3 (Homo sapiens, UniProt Q96P20); experiment: THP-1 cells pyroptosis assay (LPS + nigericin, resazurin readout; THP IC50); type: cell-based; design: Seed THP-1 cells (25,000 cells/well) containing 1.0 μg/ml LPS in 40 μl of RPMI medium; host or cells: THP-1 cells
Outline: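 Human THP-1 cells, 25,000/well in serum-free RPMI with 1 μg/ml LPS, treated 3 hrs at 37° C with compound (8-point half-log, 10 μM top, 0.1% DMSO), then 5 μM nigericin 1 hr. Viability by 100 μM resazurin fluorescence after 1-2 hrs; IC50 by 4-parameter fit.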

NLRP3 [3] = target: T1, NLRP3; experiment: Human whole blood IL1β release assay (LPS + nigericin, AlphaLisa IL-1β; HWB IC50); type: cell-based; design: Human whole blood in Li-heparin tubes was obtained from healthy donors from a volunteer donor panel; from tissue; host or cells: human whole blood from healthy donors; conditions: IL-1β release
Outline: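 Donor Li-heparin whole blood primed with 1 μg/ml LPS, given compound (8-point half-log series, 10 μM top; DMSO 0.1% final) for 3 h at 37 °C, then nigericin 10 μM final for 1 h. Supernatant IL-1β measured by AlphaLisa; IC50 from 4-parameter variable-slope fit.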

T1 sequence (Q96P20 whole entry): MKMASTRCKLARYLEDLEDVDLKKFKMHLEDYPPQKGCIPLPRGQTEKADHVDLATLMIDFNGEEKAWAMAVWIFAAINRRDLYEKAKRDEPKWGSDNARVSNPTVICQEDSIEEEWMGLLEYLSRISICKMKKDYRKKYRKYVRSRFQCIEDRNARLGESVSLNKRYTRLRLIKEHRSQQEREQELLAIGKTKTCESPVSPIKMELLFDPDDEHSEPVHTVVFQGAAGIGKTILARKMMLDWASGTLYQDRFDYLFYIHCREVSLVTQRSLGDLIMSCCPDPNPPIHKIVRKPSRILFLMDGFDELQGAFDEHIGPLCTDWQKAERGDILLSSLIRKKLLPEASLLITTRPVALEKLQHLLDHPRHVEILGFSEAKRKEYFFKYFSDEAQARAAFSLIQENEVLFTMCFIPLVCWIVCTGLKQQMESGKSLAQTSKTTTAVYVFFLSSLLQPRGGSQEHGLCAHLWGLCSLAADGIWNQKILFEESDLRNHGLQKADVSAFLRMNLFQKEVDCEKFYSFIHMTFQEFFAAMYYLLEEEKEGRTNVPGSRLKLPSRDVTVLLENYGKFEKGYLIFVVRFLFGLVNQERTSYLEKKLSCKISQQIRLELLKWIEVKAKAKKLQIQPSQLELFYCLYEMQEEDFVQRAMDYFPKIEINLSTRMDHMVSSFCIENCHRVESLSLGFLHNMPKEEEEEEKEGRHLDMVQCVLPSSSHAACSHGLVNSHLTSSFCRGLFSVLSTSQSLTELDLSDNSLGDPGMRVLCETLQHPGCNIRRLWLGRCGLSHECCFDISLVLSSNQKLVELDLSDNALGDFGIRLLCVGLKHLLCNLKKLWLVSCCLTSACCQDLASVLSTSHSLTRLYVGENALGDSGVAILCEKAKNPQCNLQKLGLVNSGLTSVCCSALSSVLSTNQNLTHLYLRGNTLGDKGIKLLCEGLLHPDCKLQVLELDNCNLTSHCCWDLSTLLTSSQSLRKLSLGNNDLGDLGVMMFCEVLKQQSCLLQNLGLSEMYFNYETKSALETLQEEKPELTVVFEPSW

SMILES	AUC ([1]; dose 1 mg/kg) [ng·h/mL]	clearance ([1]; dose 1 mg/kg) [mL/min/kg]	half-life ([1]; dose 1 mg/kg) [h]	Vd ([1]; dose 1 mg/kg) [L/kg]	IC50 (NLRP3 [2]) [nM]	IC50 (NLRP3 [3]) [nM]	AUC ([1]; dose 1.98 mg/kg) [ng·h/mL]	clearance ([1]; dose 1.98 mg/kg) [mL/min/kg]	half-life ([1]; dose 1.98 mg/kg) [h]	Vd ([1]; dose 1.98 mg/kg) [L/kg]
CC(C)c1cc(F)cc(-c2cccnc2)c1NC(=O)NS(=O)(=O)c1ccn(C(C)C)n1 [Example 1, N-((4-Fluoro-2-iso-propyl-6-(pyridin-3-yl)phenyl)carbamoyl)-1-iso-propyl-1H-pyrazole-3-sulfonamide]	341	49.1	3.3	4.49	≤ 500	≤ 500				
CC(C)c1cc(F)cc(-c2ccncc2)c1NC(=O)NS(=O)(=O)c1ccn(C(C)C)n1 [Example 10, N-((4-Fluoro-2-iso-propyl-6-(pyridin-4-yl)phenyl)carbamoyl)-1-iso-propyl-1H-pyrazole-3-sulfonamide, partial ammonium salt]					≤ 500	≤ 500	806	40.9	3.8	7.14
CC(C)c1cc(F)cc(-c2ccnc(C#N)c2)c1NC(=O)NS(=O)(=O)c1ccn(C(C)C)n1 [Example 28, N-((2-(2-Cyanopyridin-4-yl)-4-fluoro-6-iso-propylphenyl)carbamoyl)-1-iso-propyl-1H-pyrazole-3-sulfonamide]	386	43.3	1.2	1.07	≤ 500	≤ 500				
CC(C)c1cc(F)cc(C2CCOCC2)c1NC(=O)NS(=O)(=O)c1cc(C(=O)N(C)C)n(C)n1 [Example 30, 3-(N-((4-Fluoro-2-iso-propyl-6-(tetrahydro-2H-pyran-4-yl)phenyl)carbamoyl)sulfamoyl)-N,N,1-trimethyl-1H-pyrazole-5-carboxamide, sodium salt]	182	91.3	2.3	2.72	≤ 5000	≤ 500				
CC#Cc1cc(-c2cc(F)cc(C(C)C)c2NC(=O)NS(=O)(=O)c2ccn(C(C)C)n2)ccn1 [Example 51, N-((4-Fluoro-2-isopropyl-6-(2-(prop-1-yn-1-yl)pyridin-4-yl)phenyl)carbamoyl)-1-isopropyl-1H-pyrazole-3-sulfonamide]	600	27.8	3.7	3.68	≤ 500	≤ 500				
CC(C)c1cc(F)cc(-c2ccnc(C#N)c2)c1NC(=O)NS(=O)(=O)c1cn(C(C)C)cn1 [Example 54, N-((2-(2-Cyanopyridin-4-yl)-4-fluoro-6-isopropylphenyl)carbamoyl)-1-isopropyl-1H-imidazole-4-sulfonamide]	200	85.4	1.6	2.5	≤ 500	≤ 500				
COc1cc(-c2cc(F)c3c(c2NC(=O)NS(=O)(=O)c2ccn(C(C)C)n2)CCC3)ccn1 [Example 55, N-((7-Fluoro-5-(2-methoxypyridin-4-yl)-2,3-dihydro-1H-inden-4-yl)carbamoyl)-1-isopropyl-1H-pyrazole-3-sulfonamide]	1860	9.8	6.9	3.25	≤ 500	≤ 1000				
COc1cc(-c2ccc3c(c2NC(=O)NS(=O)(=O)c2cncc(N(C)C)n2)CCC3)ccn1 [Example 104, 6-(Dimethylamino)-N-((5-(2-methoxypyridin-4-yl)-2,3-dihydro-1H-inden-4-yl)carbamoyl)pyrazine-2-sulfonamide]	841	19.8	1.2	1.04	≤ 500					

Continued, values first:

AUC ([1]; dose 1 mg/kg) [ng·h/mL]	clearance ([1]; dose 1 mg/kg) [mL/min/kg]	half-life ([1]; dose 1 mg/kg) [h]	Vd ([1]; dose 1 mg/kg) [L/kg]	IC50 (NLRP3 [2]) [nM]	IC50 (NLRP3 [3]) [nM]	AUC ([1]; dose 1.98 mg/kg) [ng·h/mL]	clearance ([1]; dose 1.98 mg/kg) [mL/min/kg]	half-life ([1]; dose 1.98 mg/kg) [h]	Vd ([1]; dose 1.98 mg/kg) [L/kg]	SMILES
412	41.9	0.4	0.41	≤ 500	≤ 500					CC(C)c1cc(F)cc(-c2ccnc(O)c2)c1NC(=O)NS(=O)(=O)c1ccn(C(C)C)n1 [Example 25, N-((4-Fluoro-2-(2-hydroxypyridin-4-yl)-6-iso-propylphenyl)carbamoyl)-1-iso-propyl-1H-pyrazole-3-sulfonamide]
274	60.7	6.3	3.95	≤ 500	≤ 500					CC(C)c1cc(F)cc(-c2cccnc2)c1NC(=O)NS(=O)(=O)c1cc(C(=O)N(C)C)n(C)n1 [Example 33, 3-(N-((4-Fluoro-2-iso-propyl-6-(pyridin-3-yl)phenyl)carbamoyl)sulfamoyl)-N,N,1-trimethyl-1H-pyrazole-5-carboxamide, sodium salt]
661	25.2	12.1	3.03	≤ 1000	≤ 500					CC(C)c1cc(F)cc(-c2cnn(C)c2)c1NC(=O)NS(=O)(=O)c1cc(C(=O)N(C)C)n(C)n1 [Example 34, 3-(N-((4-Fluoro-2-iso-propyl-6-(1-methyl-1H-pyrazol-4-yl)phenyl)carbamoyl)sulfamoyl)-N,N,1-trimethyl-1H-pyrazole-5-carboxamide, sodium salt]
356	47.6	0.5	0.8	≤ 500	≤ 500					COc1cc(-c2cc(F)cc(C(C)C)c2NC(=O)NS(=O)(=O)c2cc(CN(C)C)n(C)n2)ccn1 [Example 36, 5-((Dimethylamino)methyl)-N-((4-fluoro-2-iso-propyl-6-(2-methoxypyridin-4-yl)phenyl)carbamoyl)-1-methyl-1H-pyrazole-3-sulfonamide]
248	67.2	0.3	1.32	≤ 500	≤ 500					COc1cc(-c2cc(F)cc(C(C)C)c2NC(=O)NS(=O)(=O)c2cc(CN(C)C)n(C(C)C)n2)ccn1 [Example 37, 5-((Dimethylamino)methyl)-N-((4-fluoro-2-iso-propyl-6-(2-methoxypyridin-4-yl)phenyl)carbamoyl)-1-iso-propyl-1H-pyrazole-3-sulfonamide]
375	51.5	1.2	1.14	≤ 500	≤ 500					CC(C)c1cc(F)cc(-c2cccc(C#N)c2)c1NC(=O)NS(=O)(=O)c1cc(CN(C)C)n(C)n1 [Example 38, N-((3′-Cyano-5-fluoro-3-iso-propyl-[1,1′-biphenyl]-2-yl)carbamoyl)-5-((dimethylamino)methyl)-1-methyl-1H-pyrazole-3-sulfonamide]
259	64.9	0.5	0.75	≤ 500	≤ 500					CC(C)c1cc(F)cc(-c2cccnc2)c1NC(=O)NS(=O)(=O)c1cc(CN(C)C)n(C)n1 [Example 44, 5-((Dimethylamino)methyl)-N-((4-fluoro-2-isopropyl-6-(pyridin-3-yl)phenyl)carbamoyl)-1-methyl-1H-pyrazole-3-sulfonamide]
259	65.6	0.5	0.98	≤ 500	≤ 500					Cc1cc(-c2cc(F)cc(C(C)C)c2NC(=O)NS(=O)(=O)c2cc(CN(C)C)n(C)n2)n(C)n1 [Example 45]
346	48.1	2.2	1.77	≤ 500						COc1cc(-c2cc(F)cc(C(C)C)c2NC(=O)NS(=O)(=O)c2cncc(N(C)C)n2)ccn1 [Example 103, 6-(Dimethylamino)-N-((4-fluoro-2-isopropyl-6-(2-methoxypyridin-4-yl)phenyl)carbamoyl)pyrazine-2-sulfonamide]
